These results are taken from patent US20100022526A1, “PYRIDAZINE DERIVATIVES, PROCESSES FOR THEIR PREPARATION AND THEIR USE AS FUNGICIDES” (SYNGENTA CROP PROTECTION, INC., priority 2007, published 2010).

For one series, the system named is Botrytis cinerea. Kind of series: Botrytis cinerea/tomato/preventive (Action against Botrytis on Tomato). The class given is in vivo. The settings on record: preventive spray, tomato plants cv. Roter Gnom, inoculated two days after application, assessed after 3 days, untreated controls infected over 80%, read-out: inhibit fungal infestation. The protocol:
Botrytis cinerea/tomato/preventive (Action against Botrytis on Tomato) 4 weeks old tomato plants cv. Roter Gnom are treated with the formulated test compound in a spray chamber. Two days after application tomato plants are inoculated by spraying a spore suspension on the test plants. After an incubation period of 3 days at 20° C. and 95% r. h. in a greenhouse the disease incidence is assessed.

The test system of another series is Alternaria solani. As to the kind of experiment: Alternaria solani/tomato/Preventive (Action against Alternaria on Tomato). The class given is in vivo. To be noted: preventive spray, tomato plants cv. Roter Gnom, inoculated two days after application, assessed after 4 days, untreated controls infected over 80%, read-out: inhibit fungal infestation. The method, then: Alternaria solani/tomato/Preventive (Action against Alternaria on Tomato) 4 weeks old tomato plants cv. Roter Gnom are treated with the formulated test compound in a spray chamber. Two days after application tomato plants are inoculated by spraying a spore suspension on the test plants. After an incubation period of 4 days at 22° C./18° C. and 95% r. h. in a greenhouse the disease incidence is assessed.

Series [1] relates to Magnaporthe grisea (Pyricularia oryzae). As to the kind of experiment: whole plant or invertebrate. The class given is in vivo. The settings on record: read-out: inhibit fungal infestation.
For another series, the system named is Septoria tritici. Kind of series: Sentoria tritici/wheat/Preventive (Action against Septoria Leaf Spot on Wheat). The class given is in vivo. To be noted: Zymoseptoria tritici, preventive spray, wheat plants cv. Riband, inoculated one day after application, assessed 16-18 days after inoculation, untreated controls infected over 80%, read-out: inhibits fungal infestation. The method, then: Sentoria tritici/wheat/Preventive (Action against Septoria Leaf Spot on Wheat) 2 weeks old wheat plants cv. Riband are treated with the formulated test compound in a spray chamber. One day after application wheat plants are inoculated by spraying a spore suspension (10^6 conidia/ml) on the test plants. After an incubation period of 1 day at 22° C./21° C. and 95% r. h. plants are kept at 22° C./21° C. and 70% r.h. in a greenhouse. The disease incidence is assessed 16-18 days after inoculation.

Series [2] has as its system Pyrenophora teres (Helminthosporium teres). Kind of series: Pyrenophora teres (Helminthosporium teres)/barley/preventive (Action against Net Blotch on Barley). The settings on record: preventive spray, barley plants cv. Regina, inoculated two days after application, assessed after 4 days, untreated controls infected over 80%, read-out: inhibit fungal infestation. The class given is in vivo. The protocol:
Pyrenophora teres (Helminthosporium teres)/barley/preventive (Action against Net Blotch on Barley) 1-week-old barley plants cv. Regina are treated with the formulated test compound in a spray chamber. Two days after application barley plants are inoculated by spraying a spore suspension (2.6×10^4 conidia/ml) on the test plants. After an incubation period of 4 days at 20° C. and 95% r. h. the disease incidence is assessed.

Another series has as its system Puccinia recondita. Kind of series: Puccinia recondita/wheat/preventive (Action against Brown Rust on Wheat). The class given is in vivo. To be noted: preventive spray, wheat plants cv. Arina, inoculated one day after application, assessed 11 days after inoculation, untreated controls infected over 80%, read-out: inhibits fungal infestation. The protocol:
Puccinia recondita/wheat/preventive (Action against Brown Rust on Wheat) 1 week old wheat plants cv. Arina are treated with the formulated test compound in a spray chamber. One day after application wheat plants are inoculated by spraying a spore suspension (1×105 uredospores/ml) on the test plants. After an incubation period of 1 day at 20° C. and 95% r. h. plants are kept for 10 days 20° C./18° C. (day/night) and 60% r.h. in a greenhouse. The disease incidence is assessed 11 days after inoculation.

The subject of another series is Uncinula necator. As to the kind of experiment: Uncinula necator/grape/preventive (Action against Powdery Mildew on Grape). The class given is in vivo. To be noted: Erysiphe necator, preventive spray, grape seedlings cv. Gutedel, inoculated one day after application, assessed after 7 days, untreated controls infected over 80%, read-out: inhibit fungal infestation. The protocol: Uncinula necator/grape/preventive (Action against Powdery Mildew on Grape) 5 weeks old grape seedlings cv. Gutedel are treated with the formulated test compound in a spray chamber. One day after application grape plants are inoculated by shaking plants infected with grape powdery mildew above the test plants. After an incubation period of 7 days at 24° C./22° C. and 70% r. h. under a light regime of 14/10 h (light/dark) the disease incidence is assessed.

The molecule `Fc1cc(F)c(-c2c(Cl)nnc(Cl)c2-c2cccc(Cl)c2)c(F)c1` [I.b. 198, 3,6-dichloro-4-(3-chloro-phenyl)-5-(2,4,6-trifluoro-phenyl)-pyridazine] displayed a melting point of 138 to 140 °C. Besides, the inhibition at 200 ppm in the series with Botrytis cinerea is at least 80%. Besides, in the series with Alternaria solani, the inhibition at 200 ppm was at least 80%. The inhibition at 200 ppm in series [1] is at least 80%. Also, the inhibition at 200 ppm in the series on Septoria tritici is at least 80%.

Molecule `Fc1cc(F)c(-c2c(Cl)nnc(Cl)c2-c2cccc(Br)c2)c(F)c1` [I.c. 198, 3,6-dichloro-4-(3-bromo-phenyl)-5-(2,4,6-trifluoro-phenyl)-pyridazine] registered a melting point of 120 to 121 °C. Further, the inhibition at 200 ppm in series [2] was at least 80%. For the same molecule, the inhibition at 200 ppm with Puccinia recondita is at least 80%.

Regarding `Cc1cccc(-c2c(Cl)nnc(Cl)c2-c2c(F)cc(F)cc2F)c1` [I.d. 198, 3,6-dichloro-4-m-tolyl-5-(2,4,6-trifluoro-phenyl)-pyridazine], the melting point lay in the range of 121 to 123 °C. Further, in series [2], the inhibition at 200 ppm was at least 80%. Also, the inhibition at 200 ppm in the series on Septoria tritici is at least 80%.

As for `Oc1nnc(O)c(-c2c(F)cc(F)cc2F)c1-c1cccc(C(F)(F)F)c1` [I.e.196, 4-(3-trifluoromethyl-phenyl)-5-(2,4,6-trifluoro-phenyl)-pyridazine-3,6-diol], the melting point is 259 to 260 °C.

Consider `Fc1cc(F)c(-c2c(Cl)nnc(Cl)c2-c2cccc(C(F)(F)F)c2)c(F)c1` [I.e. 198, 3,6-dichloro-4-(3-trifluoromethyl-phenyl)-5-(2,4,6-trifluoro-phenyl)-pyridazine], for which the melting point lay in the range of 117 to 119 °C. Further, in the series with Botrytis cinerea, the inhibition at 200 ppm is at least 80%. Besides, in the series on Uncinula necator, the inhibition at 200 ppm is at least 80%.

In turn, `Fc1ccc(-c2c(F)nnc(F)c2-c2c(F)cc(F)cc2F)cc1` [I.j. 197, 3,6-difluoro-4-(4-fluoro-phenyl)-5-(2,4,6-trifluoro-phenyl)-pyridazine] displayed a melting point of 74 to 76 °C. Also, the inhibition at 200 ppm in series [2] was at least 80%. For the same molecule, the inhibition at 200 ppm in the series with Botrytis cinerea was at least 80%. Besides, the inhibition at 200 ppm in the series on Alternaria solani is at least 80%. Also, the inhibition at 200 ppm in the series on Puccinia recondita was at least 80%. The inhibition at 200 ppm in the series with Septoria tritici is at least 80%.

`COc1nnc(Cl)c(-c2c(F)cc(F)cc2F)c1-c1ccc(F)cc1` [I.j. 199, 3-chloro-5-(4-fluoro-phenyl)-6-methoxy-4-(2,4,6-trifluoro-phenyl)-pyridazine] gave a melting point of 146 to 151 °C. For the same molecule, the inhibition at 200 ppm in series [2] is at least 80%. Moreover, the inhibition at 200 ppm with Botrytis cinerea was at least 80%. For the same molecule, in the series with Alternaria solani, the inhibition at 200 ppm was at least 80%. The inhibition at 200 ppm in the series on Uncinula necator was at least 80%. Besides, the inhibition at 200 ppm in series [1] is at least 80%. In the series with Septoria tritici, the inhibition at 200 ppm is at least 80%.

`Oc1nnc(O)c(-c2c(F)cccc2Cl)c1-c1ccc(Cl)cc1` [I.k.076, 4-(4-chloro-phenyl)-5-(2-chloro-6-fluoro-phenyl)-pyridazine-3,6-diol] showed a melting point of 144 to 149 °C.

Molecule `Fc1cccc(Cl)c1-c1c(Cl)nnc(Cl)c1-c1ccc(Cl)cc1` [I.k.078, 3,6-dichloro-4-(2-chloro-6-fluoro-phenyl)-5-(4-chloro-phenyl)-pyridazine] had a melting point of 144 to 145 °C.

Take `COc1nnc(Cl)c(-c2c(F)cccc2Cl)c1-c1ccc(Cl)cc1` [I.k.079, 3-chloro-4-(2-chloro-6-fluoro-phenyl)-5-(4-chloro-phenyl)-6-methoxy-pyridazine]: the melting point is 137 to 141 °C.

On to `Oc1nnc(O)c(-c2c(F)cc(F)cc2F)c1-c1ccc(Cl)cc1` [I.k.196, 4-(4-chloro-phenyl)-5-(2,4,6-trifluoro-phenyl)-pyridazine-3,6-diol], for which the melting point lay in the range of 158 to 164 °C.

Regarding `O=c1[nH][nH]c(=O)c(-c2c(F)cc(F)cc2F)c1-c1ccc(Br)cc1` [I.l.196, 4-(4-bromophenyl)-5-(2,4,6-trifluorophenyl)-1,2-dihydro-pyridazine-3,6-dione], the melting point was 272 to 274 °C.

For the molecule `Fc1cc(F)c(-c2c(F)nnc(F)c2-c2ccc(Br)cc2)c(F)c1` [I.l. 197, 4-(4-bromophenyl)-3,6-difluoro-5-(2,4,6-trifluorophenyl)-pyridazine], the melting point lay within 132 to 133 °C. Besides, in series [2], the inhibition at 200 ppm was at least 80%. For the same molecule, in the series with Alternaria solani, the inhibition at 200 ppm was at least 80%. Moreover, the inhibition at 200 ppm with Uncinula necator was at least 80%. Further, the inhibition at 200 ppm in series [1] is at least 80%. The inhibition at 200 ppm in the series on Puccinia recondita was at least 80%. Also, the inhibition at 200 ppm with Septoria tritici is at least 80%.

Molecule `Fc1cc(F)c(-c2c(Cl)nnc(Cl)c2-c2ccc(Br)cc2)c(F)c1` [I.l. 198, 4-(4-bromophenyl)-3,6-dichloro-5-(2,4,6-trifluorophenyl)-pyridazine] yielded a melting point of 134 to 137 °C. Moreover, the inhibition at 200 ppm in series [2] was at least 80%. For the same molecule, the inhibition at 200 ppm in the series with Botrytis cinerea is at least 80%. In addition, the inhibition at 200 ppm in the series on Alternaria solani is at least 80%. Further, the inhibition at 200 ppm in series [1] was at least 80%. Besides, in the series with Puccinia recondita, the inhibition at 200 ppm was at least 80%. Also, the inhibition at 200 ppm in the series with Septoria tritici was at least 80%.

As for `Cc1ccc(-c2c(Cl)nnc(Cl)c2-c2c(F)cc(F)cc2F)cc1` [I.m. 198, 3,6-dichloro-4-p-tolyl-5-(2,4,6-trifluoro-phenyl)-pyridazine], the inhibition at 200 ppm (in series [2]; in the series with Botrytis cinerea; in the series with Alternaria solani; with Uncinula necator; in the series with Puccinia recondita; with Septoria tritici) was at least 80% throughout.

Take `COc1nnc(Cl)c(-c2c(F)cc(F)cc2F)c1-c1ccc(C)cc1` [I.m. 199, 3-chloro-6-methoxy-5-p-tolyl-4-(2,4,6-trifluoro-phenyl)-pyridazine]: the melting point fell in the range of 126 to 128 °C. In the series on Puccinia recondita, the inhibition at 200 ppm is at least 80%. The inhibition at 200 ppm in the series on Septoria tritici is at least 80%.

Consider `CCc1ccc(-c2c(O)nnc(O)c2-c2c(F)cc(F)cc2F)cc1` [I.o.196, 4-(4-ethyl-phenyl)-5-(2,4,6-trifluoro-phenyl)-pyridazine-3,6-diol], for which the melting point lay in the range of 278 to 289 °C.

Regarding `CCc1ccc(-c2c(OC)nnc(Cl)c2-c2c(F)cc(F)cc2F)cc1` [I.o. 199, 3-chloro-5-(4-ethyl-phenyl)-6-methoxy-4-(2,4,6-trifluoro-phenyl)-pyridazine], the melting point lay within 109 to 112 °C. Further, the inhibition at 200 ppm in the series on Alternaria solani is at least 80%. Also, the inhibition at 200 ppm in the series on Uncinula necator was at least 80%. Besides, the inhibition at 200 ppm in series [1] is at least 80%. For the same molecule, the inhibition at 200 ppm in the series with Puccinia recondita was at least 80%. Also, in the series with Septoria tritici, the inhibition at 200 ppm is at least 80%.

`COc1ccc(-c2c(O)nnc(O)c2-c2c(F)cc(F)cc2F)cc1` [I.p.196, 4-(4-methoxy-phenyl)-5-(2,4,6-trifluoro-phenyl)-pyridazine-3,6-diol] showed a melting point of 287 to 294 °C.

In the case of `COc1ccc(-c2c(Cl)nnc(Cl)c2-c2c(F)cc(F)cc2F)cc1` [I.p. 198, 3,6-dichloro-4-(4-methoxy-phenyl)-5-(2,4,6-trifluoro-phenyl)-pyridazine], the melting point is 106 to 109 °C. Also, in the series with Botrytis cinerea, the inhibition at 200 ppm was at least 80%. In addition, in the series on Alternaria solani, the inhibition at 200 ppm was at least 80%. Further, the inhibition at 200 ppm in the series with Uncinula necator is at least 80%. The inhibition at 200 ppm in series [1] was at least 80%. The inhibition at 200 ppm in the series on Septoria tritici was at least 80%.

As to `Fc1cc(F)c(-c2c(Cl)nnc(Cl)c2-c2ccc(Cl)c(Cl)c2)c(F)c1` [I.v. 198, 3,6-dichloro-4-(3,4-dichloro-phenyl)-5-(2,4,6-trifluoro-phenyl)-pyridazine], the melting point lay in the range of 139 to 140 °C. Besides, the inhibition at 200 ppm in series [2] was at least 80%. The inhibition at 200 ppm in the series on Botrytis cinerea is at least 80%. In addition, in the series on Alternaria solani, the inhibition at 200 ppm is at least 80%. For the same molecule, in the series with Septoria tritici, the inhibition at 200 ppm was at least 80%.

As a reminder, the melting point is the temperature, or range, at which the solid turns liquid.
